The values that follow come from patent US20140134261A1 (priority 2012, published 2014).

One series has as its target μ-opiate receptor (Homo sapiens, UniProt P35372). The following applies: cited from earlier work.
Series [1] relates to PC-3 prostate cancer xenografts. The following applies: given orally; cited from earlier work.
For series [2] the following is noted: 1 mg/kg systemic, before cecal ligation and puncture, late sepsis period; cited from earlier work.
For series [3] the following is noted: in vitro; cited from earlier work.
In series [4] the test system is Rat peritoneal macrophages. The following applies: 10 μM, pre-incubated 1 h; cited from earlier work.
For series [5] the following is noted: male rats, diet with 30% lard, capsaicin at 0.14% of the diet; cited from earlier work.
For the next series, the target named is TRPV1 receptor (Homo sapiens, UniProt Q8NER1). The following applies: cited from earlier work.
TRPV1 receptor, sequence (Q8NER1 whole entry): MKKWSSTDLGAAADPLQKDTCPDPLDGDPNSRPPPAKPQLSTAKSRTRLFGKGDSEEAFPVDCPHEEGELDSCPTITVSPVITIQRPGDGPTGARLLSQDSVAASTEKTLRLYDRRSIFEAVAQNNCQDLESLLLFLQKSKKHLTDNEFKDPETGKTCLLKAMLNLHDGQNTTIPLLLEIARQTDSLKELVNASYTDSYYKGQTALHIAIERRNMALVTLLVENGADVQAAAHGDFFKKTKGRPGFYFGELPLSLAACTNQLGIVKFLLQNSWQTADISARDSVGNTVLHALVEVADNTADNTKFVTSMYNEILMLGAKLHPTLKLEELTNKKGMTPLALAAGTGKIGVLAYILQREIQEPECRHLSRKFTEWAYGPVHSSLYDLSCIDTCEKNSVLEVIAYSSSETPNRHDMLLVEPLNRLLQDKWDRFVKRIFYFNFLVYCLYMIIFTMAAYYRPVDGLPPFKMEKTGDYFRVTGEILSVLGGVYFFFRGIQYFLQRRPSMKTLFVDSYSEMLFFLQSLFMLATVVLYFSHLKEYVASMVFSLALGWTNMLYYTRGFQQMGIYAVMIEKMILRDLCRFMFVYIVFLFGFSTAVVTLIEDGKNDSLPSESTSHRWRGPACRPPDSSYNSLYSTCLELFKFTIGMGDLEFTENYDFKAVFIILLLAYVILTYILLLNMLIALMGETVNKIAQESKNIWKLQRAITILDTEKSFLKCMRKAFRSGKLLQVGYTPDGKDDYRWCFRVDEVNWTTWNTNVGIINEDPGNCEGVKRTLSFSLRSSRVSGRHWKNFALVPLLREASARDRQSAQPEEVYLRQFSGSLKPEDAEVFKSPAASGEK
For series [6] the following is noted: humans, after ingestion of 26.6 mg of capsaicin; cited from earlier work.
For series [7], the system named is cytochrome (CYP) enzymes present in the human liver. The following applies: in vitro; cited from earlier work.
A further series relates to macrophages. The following applies: preincubation with 10 μM; cited from earlier work.
The subject of a further series is NF-κ-B. The following applies: pretreatment of human myeloid ML-1a cells; cited from earlier work.

Read-outs that look alike come from different tables or passages of the source.

μ-opiate receptor, sequence (P35372 whole entry): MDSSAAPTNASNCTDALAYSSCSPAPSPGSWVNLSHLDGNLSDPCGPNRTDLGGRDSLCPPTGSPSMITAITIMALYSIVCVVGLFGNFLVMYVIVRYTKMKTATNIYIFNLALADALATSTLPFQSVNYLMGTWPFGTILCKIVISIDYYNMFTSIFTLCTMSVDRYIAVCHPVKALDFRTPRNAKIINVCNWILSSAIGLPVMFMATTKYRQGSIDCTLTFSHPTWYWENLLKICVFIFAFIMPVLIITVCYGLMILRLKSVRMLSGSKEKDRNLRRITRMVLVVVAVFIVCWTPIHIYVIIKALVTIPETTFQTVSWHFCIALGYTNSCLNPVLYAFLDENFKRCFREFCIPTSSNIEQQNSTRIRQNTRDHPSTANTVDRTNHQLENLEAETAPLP

As to 0-desmethyltramadol [Example M1], the “analgesic potency relative to the parent drug tramadol” value on μ-opiate receptor was “at least twice the analgesic potency”.
As for `COc1cc(CNC(=O)CCCCC=CC(C)C)ccc1O` [capsaicin, 8-methyl-N-vanillyl-6-nonenamide], the “growth of xenografts as measured by size” value in [1] was “significantly slowed”. Moreover, in [2], the “lipid peroxidation in various tissues, including lung and liver” value is listed as “decreased”. Besides, the “metabolism in human skin” value in series [3] was “quite slow”. Besides, in series [4], the “inhibition of incorporation of arachidonic acid into membrane lipids” value is on record as 76%, the “inhibition of leukotriene B4” value is 46%, the “inhibition of leukotriene C4” value was 48% and the “inhibition of prostaglandin E2” value is 48%. The “serum triglyceride levels versus high-fat diet without capsaicin” value in series [5] is recorded as “significantly lower”. Further, the “affinity as exogenous agonist for the TRPV1 receptor” value on TRPV1 receptor is “low nanomolar affinity”. For the same compound, in [6], the Cmax is recorded as 2.5 (0.1) ng ml^−1 and the Tmax is on record as 47.1 (2.0) min. The “metabolism by CYP enzymes in the human liver” value in [7] was “metabolized rapidly”. Besides, in the series with macrophages, the “superoxide anions, hydrogen peroxide, and nitrite radical production” value was “completely inhibited”. Moreover, the “duration of pain at the site of application” value (about 1 gram of 8% capsaicin ointment on forehand) is about 48 h. Moreover, under “about 1 gram ointment (14.25% capsaicin palmitate or 8% capsaicin) on forehand, six healthy volunteers, asked after 30 minutes”, the “burning sensation at the site of application” value was “intense burning”. Further, under “application of 8% capsaicin”, the “duration of pain and inflammation” value is “almost a day”; the “time to intense pain at the site of application” value was at most 15 min. The “burning pain at the site of application” value (topical ointment, about 14.25% capsaicin palmitate (about 8% of capsaicin) or 8% capsaicin, no topical anesthetic) is reported as “intense pain”. Further, the “TNF-mediated activation of NF-κ-B” value in the series with NF-κ-B is given as “blocked”.
“Palmitoyl Ester of Capsaicin USP (Formula I, R=—(CH2)14—CH3) [capsaicin palmitate]”: where the note is “human, in vivo”, the “burning pain at the site of application” value is given as “almost no burning pain” and the “burning sensation at the site of application” value is recorded as “did not cause any burning sensation”.
